Results taken from US20140135310A1, “SULPHONAMIDE DERIVATIVES OF ALICYCLIC AMINES FOR THE TREATMENT OF CENTRAL NERVOUS SYSTEM DISEASES” (Adamed Sp. z o.o., priority 2011, published 2014).

How the values were obtained:
[1] = biological target: T1, serotonin transporter (SERT) (Homo sapiens, UniProt P31645); test: Radioligand binding assay, serotonin transporter (SERT); settings: binding assay, test compound 1×10^−6 M
T1 construct: expressed in transfected cells; host or cells: CHO cells
Description: (§1) The specific ligand binding to the receptors is defined as the difference between the total binding and the non-specific binding determined in the presence of the excess of unlabelled ligand.
(§2) The results are expressed as a percent of control specific binding ((measured specific binding/control specific binding)×100) and as a percent inhibition of control specific binding (100−((measured specific binding/control specific binding)×100)) obtained in the presence of the test compounds. The specific ligand binding to the receptors is defined as the difference between the total binding and the nonspecific binding determined in the presence of an excess of unlabelled ligand. Scintillation counting was the method of detection of ligand binding. The IC50 values (concentration causing a half-maximal inhibition of control specific binding) were determined by non-linear regression analysis of the competition curves generated with mean replicate values using Hill equation curve fitting (Y=D+[(A−D)/(1+(C/C50)nH)], where Y=specific binding, D=minimum specific binding, A=maximum specific binding, C=compound concentration, C50=IC50, and nH=slope factor). This analysis was performed using a software developed at Cerep (Hill software) and validated by comparison with data generated by the commercial software SigmaPlot® 4.0 for Windows® (© 1997 by SPSS Inc.). The inhibition constants (Ki) were calculated using the Cheng Prusoff equation (Ki=IC50/(1+(L/KD)), where L=concentration of radioligand in the assay, and KD=affinity of the radioligand for the receptor). A scatchard plot was used to determine the Kd.
Experimental conditions for tests are given in Table 12, and results of tests for representative compounds are given in Tables 13a and 13b.

[2] = biological target: dopaminergic receptors D2 (Homo sapiens, UniProt P14416); test: Radioligand binding assay, dopaminergic D2 receptors; settings: binding assay, test compound 1×10^−6 M
Description: as §1, §2
(§3) Experimental conditions for tests are given in Table 1, the results of tests for representative compounds are given in Tables 2a and 2b (receptors D2 and D3) and in Table 3 (receptors D4).

5-HT2A receptor = biological target: T2, 5-HT2A receptor (Homo sapiens, UniProt P28223); test: Radioligand binding assay, serotoninergic 5-HT2A receptors; settings: binding assay result in %, Table 5a
T2 construct: purchased PerkinElmer
Description: as §1, §2
5-HT2A: Bryan L. Roth. Assay Protocol Book. University of North Carolina At Chapel Hill. National Institute of Mental Health. Psychoactive Drug Screening Program. Available on-line at 31 Aug. 2008: http://pdsp.med.unc.edu/UNC-CH%20Protocol%20Book.pdf

[3] = biological target: dopaminergic receptors D3 (Homo sapiens, UniProt P35462); test: Radioligand binding assay, dopaminergic D3 receptors; settings: test compound 1×10^−6 M
Description: as §1, §2, §3

[4] = biological target: T3, 5-HT1A receptor (rat hippocampus) (Rattus norvegicus, UniProt P19327); test: Radioligand binding assay, serotoninergic 5-HT1A receptors; settings: binding assay result in %, Table 5a;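 note: test compound at 1 µM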
T3 construct: hippocampus; from tissue; host or cells: rat hippocampus
T3 sequence (P19327 1-422): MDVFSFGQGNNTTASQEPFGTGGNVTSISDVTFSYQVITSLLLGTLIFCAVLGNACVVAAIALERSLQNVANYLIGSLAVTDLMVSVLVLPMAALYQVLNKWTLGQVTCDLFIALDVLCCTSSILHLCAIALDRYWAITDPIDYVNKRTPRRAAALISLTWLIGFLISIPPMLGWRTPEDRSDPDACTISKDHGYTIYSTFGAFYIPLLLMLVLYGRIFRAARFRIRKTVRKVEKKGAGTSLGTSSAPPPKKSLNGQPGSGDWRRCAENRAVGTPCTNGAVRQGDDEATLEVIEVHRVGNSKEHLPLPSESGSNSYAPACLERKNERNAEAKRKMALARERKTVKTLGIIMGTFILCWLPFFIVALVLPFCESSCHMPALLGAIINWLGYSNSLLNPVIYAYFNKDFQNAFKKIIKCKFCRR
Description: as §1, §2
(§4) Experimental conditions for tests are given in Table 4, and results of tests for representative compounds of the invention are given in Table 5a and 5b (receptors 5-HT1A, 5-HT2A, 5-HT6 and 5-HT7) and in Table 6 (receptors 5-HT2C).

5-HT6 receptor = biological target: T4, 5-HT6 receptor (Homo sapiens, UniProt P50406); test: Radioligand binding assay, serotoninergic 5-HT6 receptors; settings: binding assay result in %, Table 5a;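 note: test compound at 1 µM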
T4 construct: purchased PerkinElmer
Description: as §1, §2, §4
5-HT6: Bryan L. Roth. Assay Protocol Book. University of North Carolina At Chapel Hill. National Institute of Mental Health. Psychoactive Drug Screening Program. Available on-line at 31 Aug. 2008: http://pdsp.med.unc.edu/UNC-CH %20Protocol%20Book.pdf

5-HT7 receptor = biological target: T5, 5-HT7 receptor (Homo sapiens, UniProt P34969); test: Radioligand binding assay, serotoninergic 5-HT7 receptors; settings: binding assay result in %, Table 5a;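 note: test compound at 1 µM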
T5 construct: purchased PerkinElmer
Description: as §1, §2, §4
5-HT7: Bryan L. Roth. Assay Protocol Book. University of North Carolina At Chapel Hill. National Institute of Mental Health. Psychoactive Drug Screening Program. Available on-line at 31 Aug. 2008: http://pdsp.med.unc.edu/UNC-CH %20Protocol%20Book.pdf

T5 sequence (P34969 whole entry): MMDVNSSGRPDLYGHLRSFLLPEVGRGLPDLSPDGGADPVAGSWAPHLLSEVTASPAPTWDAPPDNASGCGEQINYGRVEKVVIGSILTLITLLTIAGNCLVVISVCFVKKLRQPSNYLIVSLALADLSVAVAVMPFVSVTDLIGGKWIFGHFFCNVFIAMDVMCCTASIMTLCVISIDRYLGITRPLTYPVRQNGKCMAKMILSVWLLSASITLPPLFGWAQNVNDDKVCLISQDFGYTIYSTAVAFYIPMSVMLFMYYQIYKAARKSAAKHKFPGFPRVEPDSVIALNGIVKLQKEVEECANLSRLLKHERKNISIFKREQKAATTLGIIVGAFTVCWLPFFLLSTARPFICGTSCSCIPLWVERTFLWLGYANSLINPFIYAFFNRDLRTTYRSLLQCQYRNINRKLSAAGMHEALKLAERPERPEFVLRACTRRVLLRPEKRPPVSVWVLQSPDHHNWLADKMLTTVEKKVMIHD
T1 sequence (P31645 whole entry): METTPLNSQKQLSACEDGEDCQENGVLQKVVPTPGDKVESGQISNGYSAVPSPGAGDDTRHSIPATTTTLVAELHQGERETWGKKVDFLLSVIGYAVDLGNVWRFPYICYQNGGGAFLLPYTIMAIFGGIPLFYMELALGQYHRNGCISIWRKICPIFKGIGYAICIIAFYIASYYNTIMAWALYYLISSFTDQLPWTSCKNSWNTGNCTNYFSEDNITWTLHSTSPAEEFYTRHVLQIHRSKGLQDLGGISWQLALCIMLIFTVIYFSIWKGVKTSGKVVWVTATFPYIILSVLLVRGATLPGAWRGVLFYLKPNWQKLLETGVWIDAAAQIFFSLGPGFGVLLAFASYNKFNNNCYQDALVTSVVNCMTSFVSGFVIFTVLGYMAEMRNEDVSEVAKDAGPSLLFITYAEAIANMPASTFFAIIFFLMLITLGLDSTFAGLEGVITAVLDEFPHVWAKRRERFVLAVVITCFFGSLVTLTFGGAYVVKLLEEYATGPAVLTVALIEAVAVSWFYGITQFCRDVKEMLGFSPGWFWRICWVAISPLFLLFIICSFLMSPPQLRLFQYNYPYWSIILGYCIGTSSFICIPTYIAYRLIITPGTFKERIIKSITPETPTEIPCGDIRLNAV
T4 sequence (P50406 whole entry): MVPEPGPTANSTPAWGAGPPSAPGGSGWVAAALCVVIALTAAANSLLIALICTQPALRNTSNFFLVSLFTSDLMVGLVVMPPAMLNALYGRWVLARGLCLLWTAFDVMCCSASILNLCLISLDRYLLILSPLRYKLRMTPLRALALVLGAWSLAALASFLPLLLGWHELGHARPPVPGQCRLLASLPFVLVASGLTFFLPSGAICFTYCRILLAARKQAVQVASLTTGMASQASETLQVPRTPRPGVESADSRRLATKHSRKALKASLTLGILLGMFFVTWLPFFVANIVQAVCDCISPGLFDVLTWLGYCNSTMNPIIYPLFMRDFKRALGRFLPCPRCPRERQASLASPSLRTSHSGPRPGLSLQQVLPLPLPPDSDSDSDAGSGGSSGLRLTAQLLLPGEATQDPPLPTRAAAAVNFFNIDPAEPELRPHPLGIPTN
Chain of dopaminergic receptors D3 (P35462 whole entry): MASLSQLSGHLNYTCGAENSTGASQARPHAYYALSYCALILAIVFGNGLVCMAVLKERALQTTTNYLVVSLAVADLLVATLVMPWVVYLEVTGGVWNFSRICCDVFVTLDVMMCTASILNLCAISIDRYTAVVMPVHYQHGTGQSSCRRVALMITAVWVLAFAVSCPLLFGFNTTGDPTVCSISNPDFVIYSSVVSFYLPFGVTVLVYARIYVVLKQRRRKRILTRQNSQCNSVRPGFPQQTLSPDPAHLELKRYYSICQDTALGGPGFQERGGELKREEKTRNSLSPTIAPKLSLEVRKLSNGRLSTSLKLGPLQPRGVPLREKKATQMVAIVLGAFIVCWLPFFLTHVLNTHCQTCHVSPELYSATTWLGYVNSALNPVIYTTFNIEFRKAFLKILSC
T2 sequence (P28223 whole entry): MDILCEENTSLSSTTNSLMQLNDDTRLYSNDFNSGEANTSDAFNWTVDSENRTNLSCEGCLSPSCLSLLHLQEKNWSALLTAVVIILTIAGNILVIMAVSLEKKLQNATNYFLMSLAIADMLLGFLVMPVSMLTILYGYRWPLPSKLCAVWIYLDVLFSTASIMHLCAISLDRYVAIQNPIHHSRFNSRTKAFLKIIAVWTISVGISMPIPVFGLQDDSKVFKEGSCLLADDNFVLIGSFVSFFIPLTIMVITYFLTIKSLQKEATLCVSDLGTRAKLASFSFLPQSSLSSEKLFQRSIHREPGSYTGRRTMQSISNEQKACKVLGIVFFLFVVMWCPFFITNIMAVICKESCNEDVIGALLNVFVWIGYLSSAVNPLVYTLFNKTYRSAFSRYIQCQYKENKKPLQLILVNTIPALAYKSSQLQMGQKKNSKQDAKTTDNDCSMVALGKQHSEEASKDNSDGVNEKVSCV
Chain of dopaminergic receptors D2 (P14416 whole entry): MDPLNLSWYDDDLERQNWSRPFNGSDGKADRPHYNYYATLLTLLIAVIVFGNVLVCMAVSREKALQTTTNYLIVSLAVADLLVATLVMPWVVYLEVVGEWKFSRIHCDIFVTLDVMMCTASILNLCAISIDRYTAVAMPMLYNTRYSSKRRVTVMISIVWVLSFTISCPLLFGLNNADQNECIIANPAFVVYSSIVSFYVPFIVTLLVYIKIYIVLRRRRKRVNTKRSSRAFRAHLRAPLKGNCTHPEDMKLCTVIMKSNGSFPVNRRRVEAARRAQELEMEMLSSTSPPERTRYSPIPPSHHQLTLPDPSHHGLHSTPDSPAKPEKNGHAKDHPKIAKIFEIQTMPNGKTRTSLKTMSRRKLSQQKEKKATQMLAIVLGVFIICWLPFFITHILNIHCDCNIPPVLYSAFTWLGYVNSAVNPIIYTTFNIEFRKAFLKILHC

| Molecule | inhibition at 1 µM [1] | inhibition at 1 µM [2] | inhibition at 1 µM (5-HT2A receptor) | inhibition at 1 µM [3] | inhibition at 1 µM [4] | inhibition at 1 µM (5-HT6 receptor) | inhibition at 1 µM (5-HT7 receptor) | SERT [%] [1] | D2 [%] [2] | 5-HT2A [%] (5-HT2A receptor) | D3 [%] [3] | 5-HT1A [%] [4] | 5-HT6 [%] (5-HT6 receptor) | 5-HT7 [%] (5-HT7 receptor) |
| --- | --- | --- | --- | --- | --- | --- | --- | --- | --- | --- | --- | --- | --- | --- |
| Cn1ccc2c(S(=O)(=O)NC3CCN(CCCc4noc5cc(F)ccc45)C3)cccc21 (stereo not drawn) [Compound 219, N-[1-[3-(6-Fluoro-1,2-benzoxazol-3-yl)propyl]pyrrolidin-3-yl]-1-methyl-indole-4-sulphonamide] | 52% | 96% | 99% | 81% | 85% | 94% | 96% |  |  |  |  |  |  |  |
| Cc1ccc(S(=O)(=O)NC2CCN(CCCc3noc4cc(F)ccc34)C2)cc1 (stereo not drawn) [Compound 209, N-[1-[3-(6-Fluoro-1,2-benzoxazol-3-yl)propyl]pyrrolidin-3-yl]-4-methyl-benzenesulphonamide] | 6% | 64% | 86% | 34% | 11% | 62% | 90% |  |  |  |  |  |  |  |
| O=S(=O)(NC1CCN(CCCc2noc3cc(F)ccc23)CC1)c1cc2ccccc2s1 [Compound 324, N-[1-[3-(6-Fluoro-1,2-benzoxazol-3-yl)propyl]-4-piperidyl]benzothiophene-2-sulphonamide] | 18% | 77% | 99% | 41% | 49% | 78% | 101% |  |  |  |  |  |  |  |
| Cc1cc(S(=O)(=O)NCC2CCN(CCCc3noc4cc(F)ccc34)C2)c(C)s1 (stereo not drawn) [Compound 262, N-[[1-[3-(6-Fluoro-1,2-benzoxazol-3-yl)propyl]pyrrolidin-3-yl]methyl]-2,5-dimethyl-thiophene-3-sulphonamide] | 26% | 26% | 85% | 44% | 25% | 69% | 92% |  |  |  |  |  |  |  |
| CC(C)(C)c1ccc(S(=O)(=O)NC2CCN(CCCc3noc4cc(F)ccc34)C2)cc1 (stereo not drawn) [Compound 14, 4-tert-Butyl-N-[1-[3-(6-fluoro-1,2-benzoxazol-3-yl)propyl]pyrrolidin-3-yl]benzenesulphonamide] | -3% | 100% | 80% | 90% | 24% | 82% | 76% |  |  |  |  |  |  |  |
| O=S(=O)(NC1CCN(CCCc2noc3cc(F)ccc23)CC1)c1csc2ccccc12 [Compound 330, N-[1-[3-(6-Fluoro-1,2-benzoxazol-3-yl)propyl]-4-piperidyl]benzothiophene-3-sulphonamide] | 22% | 77% | 102% | 64% | 82% | 79% | 101% |  |  |  |  |  |  |  |
| O=S(=O)(NCC1CCN(CCCc2noc3cc(F)ccc23)C1)c1ccc(F)cc1 (stereo not drawn) [Compound 252, 4-Fluoro-N-[[1-[3-(6-fluoro-1,2-benzoxazol-3-yl)propyl]pyrrolidin-3-yl]methyl]benzenesulphonamide] | -2% | 36% | 89% | 43% | 44% | 75% | 90% |  |  |  |  |  |  |  |
| 3-tert-Butyl-N-[[1-[3-(6-fluoro-1,2-benzoxazol-3-yl)propyl]pyrrolidin-3-yl]methyl]benzenesulphonamide [Compound 249] |  |  |  |  |  |  |  | 28% | 4% | 79% | 36% | 23% | 58% | 87% |
| Cn1ccc2c(S(=O)(=O)NC3CCN(CCCc4noc5cc(F)ccc45)CC3)cccc21 [Compound 329, N-[1-[3-(6-Fluoro-1,2-benzoxazol-3-yl)propyl]-4-piperidyl]-1-methyl-indole-4-sulphonamide] | 43% | 84% | 94% | 68% | 49% | 62% | 97% |  |  |  |  |  |  |  |
| Cc1cccc(S(=O)(=O)NC2CCN(CCCc3noc4cc(F)ccc34)CC2)c1 [Compound 33, N-[1-[3-(6-Fluoro-1,2-benzoxazol-3-yl)propyl]-4-piperidine]-3-methyl-benzenesulphonamide] |  |  |  |  |  |  |  | −4% | 54% | 97% | 58% | 22% | 91% | 100% |
| O=S(=O)(NCC1CCN(CCCc2noc3cc(F)ccc23)C1)c1ccccc1 (stereo not drawn) [Compound 245, N-[[1-[3-(6-Fluoro-1,2-benzoxazol-3-yl)propyl]pyrrolidin-3-yl]methyl]benzenesulphonamide] | 18% | -4% | 73% | 40% | 35% | 57% | 81% |  |  |  |  |  |  |  |
| COc1cccc(S(=O)(=O)NC2CCN(CCCc3noc4cc(F)ccc34)C2)c1 (stereo not drawn) [Compound 17, N-[1-[3-(6-Fluoro-1,2-benzoxazol-3-yl)propyl]pyrrolidin-3-yl]-3-methoxybenzenesulphonamide] | 52% | 80% | 94% | 20% | 23% | 76% | 80% |  |  |  |  |  |  |  |
| O=S(=O)(NCC1CCN(CCCc2noc3cc(F)ccc23)C1)c1cccc(Cl)c1 (stereo not drawn) [Compound 243, 3-Chloro-N-[[1-[3-(6-fluoro-1,2-benzoxazol-3-yl)propyl]pyrrolidin-3-yl]methyl]benzenesulphonamide] | 7% | 14% | 90% | 47% | 21% | 75% | 89% |  |  |  |  |  |  |  |
| O=S(=O)(NCC1CN(CCCc2noc3cc(F)ccc23)C1)c1ccc(Cl)s1 [Compound 155, 5-Chloro-N-[[1-[3-(6-fluoro-1,2-benzoxazol-3-yl)propyl]azetidin-3-yl]methyl]thiophene-2-sulphonamide] | -12% | 61% | 89% | 68% | 42% | 62% | 82% |  |  |  |  |  |  |  |
| COc1ccc(S(=O)(=O)NC2CCN(CCCc3noc4cc(F)ccc34)C2)cc1 (stereo not drawn) [Compound 213, N-[1-[3-(6-Fluoro-1,2-benzoxazol-3-yl)propyl]pyrrolidin-3-yl]-4-methoxybenzenesulphonamide] | 12% | 81% | 100% | 57% | 63% | 78% | 93% |  |  |  |  |  |  |  |
